This is an account of results in ChEMBL document CHEMBL3621168, “Elucidating new structural features of the triazole scaffold for the development of mPGES-1 inhibitors” (Medchemcomm, 2015).

The structures appear in SMILES notation.

In one experiment the target is T1, Prostaglandin E synthase (Homo sapiens) (UniProt O14684).
T1 sequence (whole entry): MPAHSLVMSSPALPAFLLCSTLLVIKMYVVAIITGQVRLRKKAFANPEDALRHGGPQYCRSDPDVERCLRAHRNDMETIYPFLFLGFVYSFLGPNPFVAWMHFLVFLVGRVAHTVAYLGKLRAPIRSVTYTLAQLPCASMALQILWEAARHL
Briefly: Inhibition of mPGES1 isolated from human A549 cells at 10 uM after 15 mis by RP HPLC analysis. It is filed as cell-free.
In the case of `N#Cc1ccc(-n2cc(COc3ccc(C(F)(F)F)cc3)nn2)cc1C(F)(F)F`, the inhibition (commonly the change of the read-out against control, counted positive when it falls) turned out to be 20%.

As to `N#Cc1ccc(-n2cc(COc3ccc([N+](=O)[O-])cc3C(F)(F)F)nn2)cc1C(F)(F)F`, the inhibition was determined as 20%.

Consider `O=[N+]([O-])c1ccc(OCc2cn(-c3cccc(C(F)(F)F)c3)nn2)c(C(F)(F)F)c1`, for which the inhibition was 20%.

The compound `N#Cc1ccc(-n2cc(COc3cccc(C(F)(F)F)c3)nn2)cc1C(F)(F)F` came in with an inhibition of 20%.

In another experiment the target is T2, Prostaglandin E synthase (Homo sapiens, UniProt O14684).
T2 sequence (O14684 whole entry): T1 sequence (whole entry)
The experiment can be described thus: Inhibition of mPGES1 isolated from human A549 cells after 15 mis by RP HPLC analysis. It is filed as cell-free.
In the case of `N#Cc1ccc(-n2cc(COc3ccc(C(F)(F)F)cc3)nn2)cc1C(F)(F)F`, the IC50 (in general, the point on the concentration scale where inhibition reaches its midpoint) was above 30 µM.

`N#Cc1ccc(-n2cc(COc3ccc([N+](=O)[O-])cc3C(F)(F)F)nn2)cc1C(F)(F)F` registered an IC50 above 30 µM.

For `N#Cc1ccc(-n2nnc(COc3ccc([N+](=O)[O-])cc3C(F)(F)F)c2I)cc1C(F)(F)F`, the IC50 worked out at 0.7 µM.

Consider `O=[N+]([O-])c1ccc(OCc2cn(-c3cccc(C(F)(F)F)c3)nn2)c(C(F)(F)F)c1`, for which the IC50 was above 30 µM.

As for `N#Cc1ccc(-n2cc(COc3cccc(C(F)(F)F)c3)nn2)cc1C(F)(F)F`, the IC50 is above 30 µM.
